Data reported in patent US20060166872A1, “Fp receptor antagonists or pgf2 alpha antagonists for treating menorrhagia” (priority 2002, published 2006).
“Also recorded” adds a separate entry of the source.

What was measured:
FP receptor = details: cited from earlier work
[1] = tested on: prostaglandin receptor TP; details: 10 μM; cited from earlier work
[2] = target: T1, prostaglandin receptor DP (Homo sapiens, UniProt Q13258); details: 10 μM; cited from earlier work
T1 sequence (Q13258 1-359): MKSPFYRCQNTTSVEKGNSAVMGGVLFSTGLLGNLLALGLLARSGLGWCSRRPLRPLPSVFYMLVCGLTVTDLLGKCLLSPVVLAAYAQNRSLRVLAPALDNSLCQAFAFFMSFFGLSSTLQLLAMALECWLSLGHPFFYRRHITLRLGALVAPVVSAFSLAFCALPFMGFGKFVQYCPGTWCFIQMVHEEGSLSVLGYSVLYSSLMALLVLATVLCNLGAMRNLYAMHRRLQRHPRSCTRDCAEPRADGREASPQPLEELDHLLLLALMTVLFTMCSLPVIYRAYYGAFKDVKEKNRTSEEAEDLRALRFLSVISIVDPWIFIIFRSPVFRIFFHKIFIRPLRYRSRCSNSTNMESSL

[3] = target: prostaglandin receptor EP2 (Homo sapiens, UniProt P43116); details: 10 μM; cited from earlier work
Sequence of prostaglandin receptor EP2 (P43116 whole entry): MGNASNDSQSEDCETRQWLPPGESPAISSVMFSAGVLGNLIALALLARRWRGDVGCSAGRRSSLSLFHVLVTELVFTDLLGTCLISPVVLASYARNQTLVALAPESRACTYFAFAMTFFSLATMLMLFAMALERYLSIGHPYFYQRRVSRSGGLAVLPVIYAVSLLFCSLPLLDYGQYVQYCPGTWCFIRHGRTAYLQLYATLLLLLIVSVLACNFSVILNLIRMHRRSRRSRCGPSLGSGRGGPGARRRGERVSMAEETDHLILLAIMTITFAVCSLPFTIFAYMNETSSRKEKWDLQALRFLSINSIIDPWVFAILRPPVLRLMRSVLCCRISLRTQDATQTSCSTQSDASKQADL

[4] = target: prostaglandin receptor EP4 (Homo sapiens, UniProt P35408); details: 10 μM; cited from earlier work
Sequence of prostaglandin receptor EP4 (P35408 whole entry): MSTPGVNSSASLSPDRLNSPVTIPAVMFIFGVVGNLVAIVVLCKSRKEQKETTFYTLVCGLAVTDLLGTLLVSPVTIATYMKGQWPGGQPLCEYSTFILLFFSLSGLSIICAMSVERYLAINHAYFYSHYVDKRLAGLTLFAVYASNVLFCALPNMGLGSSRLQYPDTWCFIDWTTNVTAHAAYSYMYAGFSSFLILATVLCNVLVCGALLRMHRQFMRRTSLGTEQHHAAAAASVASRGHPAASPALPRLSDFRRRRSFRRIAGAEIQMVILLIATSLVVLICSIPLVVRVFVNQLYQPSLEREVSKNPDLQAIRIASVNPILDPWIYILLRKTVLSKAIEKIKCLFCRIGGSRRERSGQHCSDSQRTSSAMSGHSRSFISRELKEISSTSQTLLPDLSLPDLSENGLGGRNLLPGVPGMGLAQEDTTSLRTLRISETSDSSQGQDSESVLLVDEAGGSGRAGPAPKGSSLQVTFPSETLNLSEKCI

Ishikawa cells [5] = assay: Proliferation assay, BrdU incorporation ELISA; type: cell-based, human; details: for basal proliferation (BrdU incorporation): no PGF2α
Experimental: Proliferation of Ishikawa cells was determined using a BrdU incorporation ELISA (Roche Diagnostics GmbH, Mannheim, Germany). Briefly, Ishikawa cells were seeded at 5×10^3 cells per well in a 96-well plate and allowed to adhere overnight. Cells were next starved for 24 hr with indomethacin 1.5 μg/ml before 24 h PGF2α treatment (1 nM-1 μM) in serum-free medium containing indomethacin. Inhibitors were added to cells for 60 min before PGF2α with the control well receiving the same concentration of vehicle. Following 24 h treatment, cells were labelled with BrdU for 4 h, then fixed and assayed for BrdU incorporation using standard immunohistochemical techniques. Results were plotted as percentages of untreated cells.

human endometrium = assay: Total inositol phosphate (InsP) assay in human endometrium; type: cell-based
Experimental: (§1) PGF2α stimulation of total InsP production was as described (21). Briefly, tissue samples or Ishikawa cells were incubated with inositol free DMEM containing 1% dialyzed heat-inactivated FCS and 0.5 μCi/well myo-[^3H]inositol (Amersham Pharmacia Biotech) for 48 hours. Medium was removed, and cells washed with 1 ml buffer (140 mM NaCl, 20 mM HEPES, 4 mM KCl, 8 mM glucose, 1 mM MgCl2, 1 mM CaCl2, 1 mg/ml bovine serum albumin) containing 10 mM LiCl. Cells were then incubated for 1 hour at 37° C. in 1 ml buffer with or without inhibitors. Following incubation agonist was added at the required concentration and cells incubated for 1 hour. Reactions were terminated by the removal of agonist and the addition of 500 μl ice cold 10 mM formic acid, which was incubated for 30 minutes at 4° C. Total [^3H] inositol phosphates was separated from the formic acid cell extracts on AG 1-X8 anion exchange resin (Bio-Rad) and eluted with a 1 M ammonium formate/0.1 M formic acid solution. The associated radioactivity was determined by liquid scintillation counting and plotted relative to protein concentrations determined using the modified Lowry method.

PGES = target: T2, PGES (Homo sapiens, UniProt O14684); details: read-out: IC50 for inhibition of PGES activity; cited from earlier work
T2 sequence (O14684 1-152): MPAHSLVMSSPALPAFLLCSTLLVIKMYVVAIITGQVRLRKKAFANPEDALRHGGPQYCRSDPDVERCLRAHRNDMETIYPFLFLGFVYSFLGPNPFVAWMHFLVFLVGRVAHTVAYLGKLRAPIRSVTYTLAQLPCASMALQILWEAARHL

Ishikawa cells [6] = assay: Total inositol phosphate (InsP) assay in Ishikawa cells; type: cell-based, human; details: PGF2α 100 nM
Experimental: as §1

Ishikawa cells [7] = assay: PGF2α-induced ERK phosphorylation in Ishikawa cells; type: cell-based, human; details: 100 nM, 10 min
Experimental: PGF2α-induced ERK phosphorylation in Ishikawa cells. PGF2α 100 nM was incubated for 10 and 30 min. U73122 2 μM was pre-incubated for 60 min before treatment with PGF2α.

HCT-8 = HCT-8 human colon adenocarcinoma cell line; cited from earlier work
HT-29 = HT-29 human colon adenocarcinoma cell line; cited from earlier work

Molecule: CCCCC(F)[C@H](O)/C=C/[C@H]1CC[C@H](O)[C@@H]1C/C=C\CCCC(=O)O (stereo partly drawn) [AL-3138, 11-deoxy-16-fluoro PGF2α]
- FP (PGF2α) receptor agonist activity, in words (FP receptor): weak partial agonist; also recorded: partial agonist of low efficacy
- FP (PGF2α) receptor antagonist activity, in words (FP receptor): highly selective antagonist

Molecule: O=C(O)CCC/C=C\C[C@@H]1[C@@H](/C=C/[C@H](O)C2Cc3ccccc3C2)[C@@H](F)C[C@@H]1O [AL-8810, (5Z, 13E)-(9S,11S,15R)-9,15-dihydroxy-11-fluoro-15-(2-indanyl)-16, 17, 18, 19, 20-pentanor-5,13-prostadienoic acid]
- inhibition of functional responses of TP receptor [1]: not to significantly inhibit
- inhibition of functional responses of DP receptor [2]: not to significantly inhibit
- inhibition of functional responses of EP2 receptor [3]: not to significantly inhibit
- inhibition of functional responses of EP4 receptor [4]: not to significantly inhibit
- FP (PGF2α) receptor agonist activity, in words (FP receptor): weak partial agonist
- FP (PGF2α) receptor antagonist activity, in words (FP receptor): highly selective antagonist; also recorded: micromolar potency

Molecule: COc1cccc(-c2cc(=O)c3ccccc3o2)c1N [PD98059]
- basal proliferation (BrdU incorporation) (Ishikawa cells [5]; PD98059 50 μM pre-treatment): 84.0±5.8%

Molecule: COc1ccc2c(c1)CC[C@@H]1[C@@H]2CC[C@]2(C)[C@@H](NCCCCCCN3C(=O)C=CC3=O)CC[C@@H]12 [U73122]
- effect on PGF2α-induced InsP mobilisation (human endometrium; pre-treatment with U73122 2 μM, PGF2α 100 nM): inhibited
- basal proliferation (BrdU incorporation) (Ishikawa cells [5]; U73122 2 μM pre-incubation): 93.9±1.9%

Molecule: CCCCC/C=C\C\C=C/C=C/C=C/[C@@H](SC[C@H](NC(=O)CC[C@H](N)C(=O)O)C(=O)NCC(=O)O)[C@@H](O)CCCC(=O)O [leukotriene C4]
- IC50 (PGES): 5 µM

Molecule: CSc1ccc(/C=C2/C(C)=C(CC(=O)O)c3cc(F)ccc32)cc1 [sulindac sulphide]
- IC50 (PGES): 80 µM

Molecule: Cc1ccc(S(=O)(=O)NC(=O)NN2CCCCCC2)cc1 [tolazamide]
- FP (PGF2α) receptor antagonist activity, in words (FP receptor): very weak antagonists

Molecule: CCCCNC(=O)NS(=O)(=O)c1ccc(C)cc1 [tolbutamide]
- FP (PGF2α) receptor antagonist activity, in words (FP receptor): very weak antagonists

Molecule: prostaglandin F2α [PGF2α]
- concentration giving maximal InsP mobilisation (human endometrium): 100 nM
- total InsP production following treatment (human endometrium): concentration-dependent increase
- maximum total InsP (Ishikawa cells [6]): 29 cpm/mg protein
- increase in phosphorylated ERK intensity compared to native ERK (Ishikawa cells [7]): 6.6±0.7 fold
- BrdU incorporation (percentage of untreated cells) (Ishikawa cells [5]; PGF2α 100 nM (maximal), 24 h, Ishikawa cells): 136.3±7.48%
- proliferation (HCT-8): lack of proliferation
- proliferation (HT-29): lack of proliferation
